# pIC50: −log10 of the molar value.
# Molecular target: Superoxide dismutase [Cu-Zn], SOD1 (Homo sapiens) (UniProt P00441)
# Experiment: Inhibition of human erythrocyte Cu-Zn SOD by NBT reduction assay
# Sequence of Superoxide dismutase [Cu-Zn], SOD1 (Homo sapiens) (P00441 whole entry, looked up): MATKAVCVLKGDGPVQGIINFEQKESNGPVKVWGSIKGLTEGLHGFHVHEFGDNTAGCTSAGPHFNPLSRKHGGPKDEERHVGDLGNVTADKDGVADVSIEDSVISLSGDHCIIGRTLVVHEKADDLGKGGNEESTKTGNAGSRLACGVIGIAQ
row,pIC50,SMILES
1,3.56,c1c2n[nH]c1CNCCN1CCNCc3cc(n[nH]3)CNCCN(CCNC2)CCNCc2cc([nH]n2)CNCC1
2,4.02,Cn1nc2cc1CNCCNCCNCc1cc(n(C)n1)CNCCNCCNC2
3,3.81,c1ccc(Cn2nc3cc2CNCCNCCNCc2cc(n(Cc4ccccc4)n2)CNCCNCCNC3)cc1
4,4.05,CCCCCCCCN1CCNCc2cc([nH]n2)CNCCN(CCCCCCCC)CCNCc2cc(n[nH]2)CNCC1

# — BindingDB's records for doi:10.1021/jm2017144 (Universidad De Granada, 2012)
